Measured values as given in patent publication US5116960A, “Amphotericin B derivatives” (Beecham Group p.l.c., priority 1988, dated 1992).
Converted amounts (≈) assume the structure as drawn.

Legend:
[1] = system: Candida albicans 73/079; experiment: Minimum Inhibitory Concentration (MIC) by broth dilution in microtitre tray, Candida albicans 73/079; format: cell-based; conditions: 37° C., inoculum 10^5
Method: (§1) The Minimum Inhibitory Concentration (MIC) was determined by diluting the test compound in a broth medium in a microtitre tray. The organisms, which had been grown previously in a broth medium (yeast nitrogen base+1% glucose), were diluted and added to the wells to provide a final inoculum of approximately 10^5 colony-forming units per well. The trays were incubated at 37° C. and the turbidity of each well noted at intervals. The MIC was taken as the lowest concentration (in μg/ml) which prevented significant growth. |Minimum Inhibitory Concentration (μg/ml) |(determined after 2 and 3 days incubation) | *Inoculum 10^5 cells/ml

[2] = system: Candida parapsilosis 937 A; experiment: Minimum Inhibitory Concentration (MIC) by broth dilution in microtitre tray, Candida parapsilosis 937 A; format: cell-based; conditions: 37° C., inoculum 10^5
Method: as §1

[3] = 48 h, Candida albicans 73/079, determined after 2 days incubation
[4] = 72 h, Candida albicans 73/079, determined after 3 days incubation
[5] = 48 h, determined after 2 days incubation
[6] = 72 h, determined after 3 days incubation

Row | MIC [1, 3] [µg/mL] | MIC [1, 4] [µg/mL] | MIC [2, 5] [µg/mL] | MIC [2, 6] [µg/mL] | SMILES
1 | 2 (≈ 2.21 µM) | 4 (≈ 4.41 µM) | 4 (≈ 4.41 µM) | 8 (≈ 8.83 µM) | C[C@@H]1[C@H](O)[C@@H](C)/C=C/C=C/C=C/C=C/C=C/C=C/C=C/[C@H](O[C@@H]2O[C@H](C)[C@@H](O)[C@H](N)[C@@H]2O)C[C@@H]2OC(=C[C@H](O)[C@H]2C(=O)O)C[C@@H](O)C[C@@H](O)[C@H](O)CC[C@@H](O)C[C@@H](O)CC(=O)O[C@H]1C [Example E6, 13,14-Anhydroamphotericin B]
2 | 16 (≈ 17.4 µM) | 32 (≈ 34.8 µM) | 32 (≈ 34.8 µM) | 32 (≈ 34.8 µM) | COC(=O)[C@H]1[C@@H]2C[C@@H](O[C@@H]3O[C@H](C)[C@@H](O)[C@H](N)[C@@H]3O)/C=C/C=C/C=C/C=C/C=C/C=C/C=C/[C@H](C)[C@@H](O)[C@@H](C)[C@H](C)OC(=O)C[C@H](O)C[C@H](O)CC[C@@H](O)[C@H](O)C[C@H](O)CC(=C[C@@H]1O)O2 [Example E10]
3 | 4 (≈ 4.48 µM) | 8 (≈ 8.97 µM) | 8 (≈ 8.97 µM) | 16 (≈ 17.9 µM) | C[C@@H]1[C@H](O)[C@@H](C)/C=C/C=C/C=C/C=C/C=C/C=C/C=C/[C@H](O[C@@H]2O[C@H](C)[C@@H](O)[C@H](N)[C@@H]2O)C[C@@H]2OC(=C[C@H](O)[C@H]2CO)C[C@@H](O)C[C@@H](O)[C@H](O)CC[C@@H](O)C[C@@H](O)CC(=O)O[C@H]1C [Example E12]
